The results in this text go back to patent US20220177456A1, “COMPOUNDS, COMPOSITIONS AND METHODS” (Denali Therapeutics Inc., priority 2019, published 2022).

In this test the test system is ISR pathway (ATF4 translation), H4 ATF4-NLuc (clone 17) cell line. As to the kind of experiment: ATF4 Nano Luciferase reporter integrated stress response (ISR) assay in H4 ATF4-NLuc cells. The settings on record: human H4 neuroglioma ATF4-NLuc cells; compound 30 minutes, then 50 μm sodium arsenite for 6 hours; luminescence readout. The test is classed as cell-based. From the text: Cellular stress leads to activation of the integrated stress response pathway through one of four eukaryotic initiation factor 2α kinases and halts global translation, while allowing for the translation of select transcripts like ATF4 (activating transcription factor 4) that are important for the response to cellular stress. During normal conditions, small open reading frames (ORFs) in the 5′ UTR of ATF4 occupy the ribosome and prevent translation of the coding sequence of ATF4. During stress conditions however, the ribosome scans past these upstream ORFs and preferentially begins translation at the coding sequence of ATF4. In this way, the translation, and thus protein level of ATF4 is a readout of ISR pathway activation. Thus, a fusion of the uORFs and the beginning of the coding sequence of ATF to a common cellular reporter like nano-luciferase allows for a sensitive and high-throughput readout of ISR pathway activity.
Compounds as provided herein were tested in the following assay. The ATF4 Nano Luciferase reporter was constructed by fusing the human full length 5′ untranslated region (5′-UTR) and a small portion of the coding sequence of the ATF4 gene upstream of the Nano Luciferase (NLuc) coding sequence lacking it's start codon. Specifically, nucleotides +1 through +364 (relative to the transcriptional start site) of ATF4 transcript variant 2 (NCBI NM_182810.2) flanked 5′ by EcoRI and 3′ by BamHI restriction enzyme sites were synthesized and cloned into the EcoRI/BamHI cloning sites of pLVX-EF1a-IRES-Puro lentivirus vector (Clontech). Lentiviral particles were produced with Lenti-X single shots (VSV-G, Clontech) according to the manufacturer's instructions and used to transduce a human H4 neuroglioma cell line (ATCC HT1B-148). H4 cells were selected with 1.25 μg/mL Puromycin, and clonal cell lines generated by limiting dilution. We utilized this cell line to generate an integrated stress response (ISR) assay to evaluate the activity of ISR pathway inhibitors via luminescence readout. The H4 ATF4-NLuc (clone 17) cell line is plated at a density of […] cells in 96-well or 384-well respectively in DMEM +10% fetal bovine serum. 24-hours later test compounds diluted in dimethyl sulfoxide (DMSO) are added for 30 minutes at 37° C., followed by ISR pathway activation with 50 μm sodium arsenite aqueous solution for 6 additional hours. Nano Glo luciferase reagent (N1150, Promega) is added according to manufacturer instructions and the luminescence signal (corresponding to the level of ATF4 translation and thus ISR pathway activation) is read with a standard plate reader with luminescence detection capabilities.
In the tables below, activity of the tested compounds is provided, and in Table 3 as follows: +++=0.003 μM<IC50<1 μM; ++=IC50 1-10 μM; +=IC50>10 μM.
On to `O=C(N[C@H]1C[C@@H](OC(F)(F)F)C1)[C@@H]1CC[C@@H](n2cnc(-c3ccc(Cl)c(F)c3)c2)CO1` [Example 25, (2S,5R)-5-[4-(4-chloro-3-fluoro-phenyl)imidazol-1-yl]-N-[3-cis-(trifluoromethoxy)cyclobutyl] tetrahydropyran-2-carboxamide], for which the IC50 fell in the range of 3 to 1000 nM.

`O=C(NC[C@H]1C[C@@H](OC(F)(F)F)C1)[C@@H]1CC[C@@H](n2cnc(-c3ccc(Cl)c(F)c3)c2)CO1` [Example 26, (2S,5R)-5-[4-(4-chloro-3-fluoro-phenyl)imidazol-1-yl]-N-[[3-cis-(trifluoromethoxy)cyclobutyl]methyl] tetrahydropyran-2-carboxamide] had an IC50 of 3 to 1000 nM.

`O=C(COc1ccc(Cl)cc1)N[C@@H]1CC[C@@H](C(=O)NCc2ccc(C(F)(F)F)cn2)OC1` [Example 27, (2S,5R)-5-[[2-(4-chlorophenoxy)acetyl]amino]-N-[[5-(trifluoromethyl)-2-pyridyl]methyl] tetrahydropyran-2-carboxamide] showed an IC50 of 3 to 1000 nM.

Turning to `O=C(COc1ccc(C(F)(F)F)cc1)N[C@@H]1CC[C@@H](C(=O)Nc2ccc3cc(C(F)(F)F)ccc3n2)OC1` [Example 28, (2S,5R)-5-[[2-[4-(trifluoromethyl)phenoxy]acetyl]amino]-N-[6-(trifluoromethyl)-2-quinolyl]tetrahydropyran-2-carboxamide], the IC50 lay in the range of 3 to 1000 nM.

Regarding `O=C(COc1ccc(Cl)cc1)N[C@@H]1CC[C@@H](C(=O)NCc2ccc(Cl)cc2)OC1` [Example 29, (2S,5R)-5-[[2-(4-chlorophenoxy)acetyl]amino]-N-[(4-chlorophenyl)methyl] tetrahydropyran-2-carboxamide], the IC50 fell in the range of 3 to 1000 nM.

Regarding `O=C(COc1ccc(Cl)c(F)c1)N[C@@H]1CC[C@@H](C(=O)N2CCC(OC(F)(F)F)CC2)OC1` [Example 30, 2-(4-chloro-3-fluoro-phenoxy)-N-[(3R,6S)-6-[4-(trifluoromethoxy)piperidine-1-carbonyl]tetrahydropyran-3-yl]acetamide], the IC50 lay in the range of 3 to 1000 nM.

Consider `O=C(COc1ccc(Cl)c(F)c1)N[C@@H]1CC[C@@H](C(=O)N2CCC(OC(F)(F)F)C2)OC1` (stereo partly drawn) [Example 31, 2-(4-chloro-3-fluoro-phenoxy)-N-[(3R,6S)-6-[3-(trifluoromethoxy)pyrrolidine-1-carbonyl]tetrahydropyran-3-yl]acetamide], for which the IC50 lay in the range of 3 to 1000 nM.

As usually defined, the IC50 is the point on the concentration scale where inhibition reaches its midpoint. A higher IC50 goes with a need for much substance.
